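Interpolation was linear, between the two tested concentrations surrounding the appropriate level; five concentrations were tested over 48 hours in 96-well plates. GI50: concentration for 50% inhibition of growth.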 Calls of active or inactive are those of the source. Rule as the data show it: active = GI50 up to about 1.1 µM and inactive = higher.
Key:
Test in all cases: inhibition of tumour cell growth, NCI panel, 48 h
A549 = system: A549
HCC 2998 = system: HCC 2998
HT-29 = system: HT-29
IGROV-1 = system: IGROV-1
M14 = system: M14
MOLT-4 = system: MOLT-4
NCI-H226 = system: NCI-H226
OVCAR-8 = system: OVCAR-8
SF-268 = system: SF-268
SNB-19 = system: SNB-19
SR = system: SR
UACC-62 = system: UACC-62
UO-31 = system: UO-31
NCI-H460 = system: NCI-H460
OVCAR-3 = system: OVCAR-3
TK-10 = system: TK-10
KM12 = system: KM12
SK-MEL-2 = system: SK-MEL-2

Measured: GI50

COc1ccc(N2C(=O)C3c4[nH]c5ccccc5c4C4CC(C)(C)CC(C)(C)C4C3C2=O)cc1 (stereo not drawn)
inactive: A549 13.2 µM | HCC 2998 33.6 µM | HT-29 26 µM | IGROV-1 22.9 µM | M14 14.3 µM | MOLT-4 14.4 µM | NCI-H226 14 µM | OVCAR-8 3.2 µM | SF-268 16.4 µM | SNB-19 23.7 µM | SR 10.3 µM | UACC-62 14.4 µM | UO-31 26 µM

COC(=O)C(Br)C1CCc2ccccc21 (stereo not drawn)
inactive: A549 > 100 µM | HCC 2998 > 100 µM | HT-29 > 100 µM | IGROV-1 > 100 µM | M14 > 100 µM | MOLT-4 68.7 µM | NCI-H226 46.3 µM | NCI-H460 > 100 µM | OVCAR-3 63.1 µM | OVCAR-8 > 100 µM | SF-268 > 100 µM | SNB-19 82.2 µM | SR 42.8 µM | TK-10 > 100 µM | UACC-62 > 100 µM | UO-31 > 100 µM

Cc1nnc2c3nnc(C)n3c3ccccc3n12
inactive: A549 > 100 µM | HCC 2998 > 100 µM | HT-29 > 100 µM | IGROV-1 > 100 µM | KM12 > 100 µM | M14 > 100 µM | MOLT-4 > 100 µM | NCI-H226 > 100 µM | NCI-H460 > 100 µM | OVCAR-3 > 100 µM | OVCAR-8 > 100 µM | SF-268 > 100 µM | SK-MEL-2 > 100 µM | SNB-19 > 100 µM | TK-10 > 100 µM | UACC-62 > 100 µM | UO-31 > 100 µM

CCCCCCCCCCCCCC(=O)NCO
inactive: A549 > 100 µM | HCC 2998 > 100 µM | HT-29 > 100 µM | IGROV-1 > 100 µM | KM12 > 100 µM | M14 > 100 µM | NCI-H226 > 100 µM | NCI-H460 > 100 µM | OVCAR-3 > 100 µM | OVCAR-8 > 100 µM | SF-268 > 100 µM | SK-MEL-2 > 100 µM | SNB-19 > 100 µM | TK-10 > 100 µM | UACC-62 > 100 µM | UO-31 99.3 µM

CCCP1(=O)C=C(C)C(=C(Cl)Cl)C(C)=C1 (stereo not drawn)
inactive: A549 33.7 µM | HCC 2998 32.3 µM | HT-29 43 µM | IGROV-1 70 µM | KM12 24.2 µM | M14 33.7 µM | MOLT-4 31 µM | NCI-H460 37.4 µM | OVCAR-3 84.9 µM | OVCAR-8 37.9 µM | SF-268 25.9 µM | SK-MEL-2 16.3 µM | SR 24.5 µM | TK-10 > 100 µM | UACC-62 44 µM | UO-31 46.7 µM

CC/C=C\C/C=C\C1CC(=O)NCCCNCCCCN1 (stereo not drawn)
inactive: A549 > 100 µM | HCC 2998 > 100 µM | HT-29 > 100 µM | KM12 > 100 µM | M14 48 µM | NCI-H226 59.7 µM | NCI-H460 > 100 µM | OVCAR-8 > 100 µM | SF-268 > 100 µM | SK-MEL-2 68.9 µM | SNB-19 > 100 µM | SR > 100 µM | TK-10 > 100 µM | UO-31 > 100 µM

CC(C)C(=O)NC(=S)Nc1ccc([N+](=O)[O-])cc1C#N
inactive: A549 > 100 µM | HCC 2998 > 100 µM | HT-29 > 100 µM | IGROV-1 > 100 µM | KM12 > 100 µM | M14 > 100 µM | MOLT-4 > 100 µM | NCI-H226 25.1 µM | NCI-H460 > 100 µM | OVCAR-3 > 100 µM | OVCAR-8 > 100 µM | SF-268 > 100 µM | SK-MEL-2 > 100 µM | SNB-19 > 100 µM | SR > 100 µM | TK-10 > 100 µM | UACC-62 > 100 µM | UO-31 > 100 µM

Brc1ccc(C[P+]2(c3ccccc3)CCCCC2)cc1.[O-][Cl+3]([O-])([O-])[O-]
inactive: A549 > 100 µM | HCC 2998 36.9 µM | HT-29 38.8 µM | IGROV-1 81.3 µM | KM12 56.1 µM | M14 65.9 µM | MOLT-4 > 100 µM | NCI-H226 > 100 µM | NCI-H460 > 100 µM | OVCAR-3 43.6 µM | OVCAR-8 95.1 µM | SK-MEL-2 33.7 µM | SNB-19 61.4 µM | SR 38.1 µM | TK-10 99.5 µM | UACC-62 41.1 µM | UO-31 > 100 µM

O=CC[C@H]1C(=O)C[C@@H]2CCC[C@@H]21
inactive: A549 > 100 µM | HCC 2998 > 100 µM | HT-29 94 µM | IGROV-1 > 100 µM | KM12 51.8 µM | M14 68.2 µM | MOLT-4 43.4 µM | NCI-H226 80.4 µM | NCI-H460 > 100 µM | OVCAR-3 47.6 µM | OVCAR-8 43.1 µM | SF-268 89.1 µM | SK-MEL-2 59.2 µM | SNB-19 > 100 µM | TK-10 > 100 µM | UACC-62 84.3 µM

c1cnc2c(c1)-n1cccc1C1(CCSCC1)NN2
inactive: A549 > 100 µM | HCC 2998 > 100 µM | HT-29 > 100 µM | KM12 > 100 µM | M14 > 100 µM | MOLT-4 50.2 µM | NCI-H226 59 µM | NCI-H460 83.4 µM | OVCAR-3 > 100 µM | OVCAR-8 > 100 µM | SF-268 > 100 µM | SK-MEL-2 > 100 µM | SNB-19 > 100 µM | SR 61.8 µM | TK-10 42.6 µM | UO-31 32.4 µM

O=C1/C(=C/c2ccc(Cl)cc2)COc2ccc(Br)cc21
inactive: A549 > 100 µM | HCC 2998 > 100 µM | HT-29 > 100 µM | IGROV-1 > 100 µM | KM12 > 100 µM | MOLT-4 > 100 µM | NCI-H460 > 100 µM | OVCAR-3 > 100 µM | OVCAR-8 > 100 µM | SF-268 > 100 µM | SK-MEL-2 > 100 µM | TK-10 > 100 µM | UO-31 80.4 µM

CCOC(=O)/N=c1/nc(N(C)C)ss1
inactive: A549 > 100 µM | HCC 2998 > 100 µM | HT-29 > 100 µM | IGROV-1 > 100 µM | KM12 > 100 µM | M14 > 100 µM | MOLT-4 > 100 µM | NCI-H226 30.3 µM | NCI-H460 > 100 µM | OVCAR-8 > 100 µM | SF-268 > 100 µM | SK-MEL-2 > 100 µM | SNB-19 > 100 µM | SR > 100 µM | TK-10 > 100 µM | UACC-62 > 100 µM | UO-31 > 100 µM

COc1c(C)n(CCO)ccc1=O
inactive: A549 > 100 µM | HT-29 > 100 µM | KM12 > 100 µM | M14 > 100 µM | MOLT-4 > 100 µM | NCI-H226 > 100 µM | NCI-H460 > 100 µM | OVCAR-3 > 100 µM | OVCAR-8 > 100 µM | SF-268 > 100 µM | SK-MEL-2 > 100 µM | SNB-19 > 100 µM | SR > 100 µM | TK-10 > 100 µM | UACC-62 > 100 µM | UO-31 > 100 µM

NC(=O)CCC(NC(=O)C(F)(F)F)C(=O)O (stereo not drawn)
inactive: A549 > 100 µM | HCC 2998 > 100 µM | HT-29 > 100 µM | IGROV-1 > 100 µM | KM12 > 100 µM | M14 > 100 µM | MOLT-4 > 100 µM | NCI-H226 > 100 µM | NCI-H460 > 100 µM | OVCAR-3 > 100 µM | OVCAR-8 > 100 µM | SF-268 > 100 µM | SK-MEL-2 > 100 µM | SNB-19 > 100 µM | TK-10 > 100 µM | UACC-62 > 100 µM | UO-31 > 100 µM

COC(=O)C1CCc2nnc(-c3cccnc3)n21 (stereo not drawn)
inactive: A549 > 100 µM | HCC 2998 > 100 µM | IGROV-1 > 100 µM | KM12 > 100 µM | M14 > 100 µM | MOLT-4 > 100 µM | NCI-H226 > 100 µM | NCI-H460 > 100 µM | OVCAR-3 > 100 µM | OVCAR-8 > 100 µM | SF-268 > 100 µM | SK-MEL-2 > 100 µM | SNB-19 > 100 µM | SR > 100 µM | TK-10 > 100 µM | UACC-62 > 100 µM | UO-31 > 100 µM

COC(=O)CC(NC(=O)OCc1ccccc1)C(C(=O)OCc1ccccc1)C(C)(OC)OC (stereo not drawn)
inactive: A549 17.3 µM | HCC 2998 38 µM | HT-29 34.6 µM | IGROV-1 19.6 µM | M14 33.6 µM | MOLT-4 5.94 µM | NCI-H226 22.6 µM | NCI-H460 31.7 µM | OVCAR-3 21.3 µM | OVCAR-8 19.5 µM | SF-268 39.9 µM | SK-MEL-2 17.6 µM | SNB-19 38.2 µM | SR 8.81 µM | TK-10 39.2 µM | UACC-62 10.5 µM | UO-31 14.6 µM

CC(=O)Nc1ccc(S(=O)(=O)N/N=C(\C)CN2C(=O)c3ccccc3C2=O)cc1
inactive: A549 > 100 µM | HCC 2998 > 100 µM | HT-29 > 100 µM | IGROV-1 > 100 µM | KM12 > 100 µM | M14 > 100 µM | MOLT-4 > 100 µM | NCI-H226 > 100 µM | NCI-H460 > 100 µM | OVCAR-3 > 100 µM | OVCAR-8 > 100 µM | SK-MEL-2 > 100 µM | SNB-19 > 100 µM | SR > 100 µM | TK-10 > 100 µM | UACC-62 > 100 µM | UO-31 > 100 µM

Source: ChEMBL document CHEMBL1201862, “PubChem BioAssay data set” (2004)
